Measurements published in patent publication US20100196321A1, “COMPOUNDS” (GLAXOSMITHKLINE LLC, priority 2009, published 2010).

Tests used:
[1] = system: sub-genomic HCV NS3-NS5B replicon of genotype 1b (ET subline) in Huh-7 cells; experiment: Replicon Luciferase Cell Based Assay, genotype 1b; set-up: species or system HCV genotype 1b; details: Hepatitis C virus, Huh-7, 48 h, read-out: Genotype 1b (IC50 μM)
Method: (§1) A 10 mM stock solution in DMSO of each test compound was further diluted in DMSO in the first row of a 384-well, V-bottom microplate, to give 100 times the top concentration of the required dilution series. Dilutions of compound were prepared in 1:3 serial dilutions from the first row onwards robotically. A robot was also used to transfer 0.5 μL volumes from each dilution well into wells of white 384-well assay plates (Nunc #164610). Control wells received 0.5 μL of DMSO alone. Plates were made in duplicate for measuring HCV replication and cytotoxicity in the replicon cell lines.
(§2) Suspensions were prepared from cultures of Huh-7 cells stably transfected with sub-genomic HCV NS3—NS5B replicons of either genotype 1b (the ET subline described by Pietschmann, T., Lohmann, V., Kaul, A., Krieger, N., Rinck, G., Rutter, G., Strand, D. & Bartenschlager, R., Journal of Virology, 2002, 76, 4008-4021) or genotype 1a linked to a firefly luciferase reporter gene. Monolayers nearing confluency were stripped from growth flasks with versene-trypsin solution and the cells re-suspended in assay medium comprising DMEM (Invitrogen #11965-092) supplemented with 5% v/v foetal calf serum, 1% v/v non-essential amino acids solution, 100 units/ml penicillin, 100 μg/ml streptomycin and 2 mM GlutaMAX-1. 50 μL of suspension containing 5,000 cells of either genotype 1b or genotype 1a luciferase replicon were added to all wells, except medium controls, of the assay plate with a Multidrop Combi (Thermo Scientific Corporation) and the plate incubated for 48 hours at 37° C. in a 5% CO2 atmosphere. A solution of Steady-Glo cytolytic buffer/luciferase substrate (Promega #E2550) was prepared according to the manufacturer's instructions, and 20 μL were added to each well with a Multidrop Combi. To measure cytotoxicity, a solution of CellTiter-Glo Luminescent Cell Viability Assay reagent (Promega #G7573) was prepared according to the manufacturer's instructions, and 20 ul were added to each well with a Multidrop Combi. The plates were then read for luminescence on an Envision Multilabel Reader (Perkin Elmer)
(§3) Potency: The luminescence values from all compound-free wells containing cells were averaged to obtain a positive control value. The mean luminescence value from the compound-free wells that had received no cells was used to provide the negative (background) control value. After the subtraction of the mean background from all values, the readings from wells at each compound concentration were expressed as a percentage of the positive control signal. The quantifiable and specific reduction of luciferase signal in the presence of a drug is a direct measure of replicon inhibition. The BioAssay application and XC50 module were used to plot the curve of percentage inhibition against compound concentration and derive the 50% inhibitory concentration (IC50) for the compound.

[2] = system: sub-genomic HCV NS3-NS5B replicon of genotype 1a in Huh-7 cells; experiment: Replicon Luciferase Cell Based Assay, genotype 1a; set-up: species or system HCV genotype 1a; details: Hepatitis C virus, Huh-7, 48 hours
Method: as §1, §2, §3

SMILES: COc1ccc2c(O[C@@H]3C[C@H]4C(=O)N[C@]5(C(=O)NS(=O)(=O)C6CC6)C[C@H]5/C=C\CCCCC[C@H](NC(=O)N5CC6CCCC6C5)C(=O)N4C3)cc(-c3nc(C(C)C)cs3)nc2c1C (stereo partly drawn) [Example 24, (2R,6S,13aS,14aR,16aS)-N-(cyclopropylsulfonyl)-6-[(hexahydrocyclopenta[c]pyrrol-2(1H)-ylcarbonyl)amino]-2-{[8-methyl-2-[4-(1-methylethyl)-1,3-thiazol-2-yl]-7-(methyloxy)-4-quinolinyl]oxy}-5,16-dioxo-1,2,3,6,7,8,9,10,11,13a,14,15,16,16a-tetradecahydrocyclopropa[e]pyrrolo[1,2-a][1,4]diazacyclopentadecine-14a(5H)-carboxamide]
- IC50 [1]: < 0.01 µM
- IC50 [2]: < 0.01 µM

SMILES: COc1ccc2c(O[C@@H]3C[C@H]4C(=O)N[C@]5(C(=O)NS(=O)(=O)C6CC6)C[C@H]5/C=C\CCCCC[C@H](NC(=O)N5CCC(CC(N)=O)CC5)C(=O)N4C3)cc(-c3nc(C(C)C)cs3)nc2c1C [Example 23, (2R,6S,13aS,14aR,16aS)-6-({[4-(2-amino-2-oxoethyl)-1-piperidinyl]carbonyl}amino)-N-(cyclopropylsulfonyl)2-{[8-methyl-2-[4-(1-methylethyl)-1,3-thiazol-2-yl]-7-(methyloxy)-4-quinolinyl]oxy}-5,16-dioxo-1,2,3,6,7,8,9,10,11,13a,14,15,16,16a-tetradecahydrocyclopropa[e]pyrrolo[1,2-a][1,4]diazacyclopentadecine-14a(5H)-carboxamide]
- IC50 [1]: < 0.01 µM
- IC50 [2]: < 0.01 µM

SMILES: C=C1CCN(C(=O)N[C@H]2CCCCC/C=C\[C@@H]3C[C@@]3(C(=O)NS(=O)(=O)C3CC3)NC(=O)[C@@H]3C[C@@H](Oc4cc(-c5nc(C6CC6)cs5)nc5c(Cl)c(OC)ccc45)CN3C2=O)CC1 [Example 27, (2R,6S,13aS,14aR,16aS,Z)-2-(8-chloro-2(4-cyclopropylthiazol-2-yl)-7-methoxyquinolin-4-yloxy)-N-(cyclopropylsulfonyl)-6-(4-methylenepiperidine-1-carboxamido)-5,16-dioxo-1,2,3,5,6,7,8,9,10,11,13a,14,14a,15,16,16a-hexadecahydrocyclopropa[e]pyrrolo[1,2-a][1,4]diazacyclopentadecine-14a-carboxamide]
- IC50 [1]: < 0.01 µM
- IC50 [2]: < 0.01 µM

SMILES: COc1ccc2c(O[C@@H]3C[C@H]4C(=O)N[C@]5(C(=O)NS(=O)(=O)C6CC6)C[C@H]5/C=C\CCCCC[C@H](NC(=O)N5CC(F)(F)C5)C(=O)N4C3)cc(-c3nc(C(C)C)cs3)nc2c1C [Example 35, (2R,6S,13aS,14aR,16aS,Z)-N-(cyclopropylsulfonyl)-6-(3,3-difluoroazetidine-1-carboxamido)-2-(2-(4-isopropylthiazol-2-yl)-7-methoxy-8-methylquinolin-4-yloxy)-5,16-dioxo-1,2,3,5,6,7,8,9,10,11,13a,14,14a,15,16,16a-hexadecahydrocyclopropa[e]pyrrolo[1,2-a][1,4]diazacyclopentadecine-14a-carboxamide]
- IC50 [1]: < 0.01 µM
- IC50 [2]: < 0.01 µM

SMILES: COc1ccc2c(O[C@@H]3C[C@H]4C(=O)N[C@]5(C(=O)NS(=O)(=O)C6CC6)C[C@H]5/C=C\CCCCC[C@H](NC(=O)N5CCC(c6ccccc6)CC5)C(=O)N4C3)cc(-c3nc(C(C)C)cs3)nc2c1C [Example 20, (2R,6S,13aS,14aR,16aS)-N-(cyclopropylsulfonyl)-2-{[8-methyl-2-[4-(1-methylethyl)-1,3-thiazol-2-yl]-7-(methyloxy)-4-quinolinyl]oxy}-5,16-dioxo-6-{[(4-phenyl-1-piperidinyl)carbonyl]amino}-1,2,3,6,7,8,9,10,11,13a,14,15,16,16a-tetradecahydrocyclopropa[e]pyrrolo[1,2-a][1,4]diazacyclopentadecine-14a(5H)-carboxamide]
- IC50 [1]: < 0.01 µM
- IC50 [2]: < 0.01 µM

SMILES: COc1ccc2c(O[C@@H]3C[C@H]4C(=O)N[C@]5(C(=O)NS(=O)(=O)C6CC6)C[C@H]5/C=C\CCCCC[C@H](NC(N)=O)C(=O)N4C3)cc(-c3nc(C(C)C)cs3)nc2c1C [Example 3, (2R,6S,13aS,14aR,16aS)-6-[(aminocarbonyl)amino]-N-(cyclopropylsulfonyl)-2-{[8-methyl-2-[4-(1-methylethyl)-1,3-thiazol-2-yl]-7-(methyloxy)-4-quinolinyl]oxy}-5,16-dioxo-1,2,3,6,7,8,9,10,11,13a,14,15,16,16a-tetradecahydrocyclopropa[e]pyrrolo[1,2-a][1,4]diazacyclopentadecine-14a(5H)-carboxamide]
- IC50 [1]: < 0.01 µM
- IC50 [2]: < 0.01 µM

SMILES: COc1ccc2c(O[C@@H]3C[C@H]4C(=O)N[C@]5(C(=O)NS(=O)(=O)C6CC6)C[C@H]5/C=C\CCCCC[C@H](NC(=O)Nc5ccccc5)C(=O)N4C3)cc(-c3nc(C(C)C)cs3)nc2c1C [Example 1, (2R,6S,13aS,14aR,16aS)-N-(cyclopropylsulfonyl)-2-{[8-methyl-2-[4-(1-methylethyl)-1,3-thiazol-2-yl]-7-(methyloxy)-4-quinolinyl]oxy}-5,16-dioxo-6-{[(phenylamino)carbonyl]amino}-1,2,3,6,7,8,9,10,11,13a,14,15,16,16a-tetradecahydrocyclopropa[e]pyrrolo[1,2-a][1,4]diazacyclopentadecine-14a(5H)-carboxamide]
- IC50 [1]: < 0.01 µM
- IC50 [2]: < 0.01 µM

SMILES: CCN(CC)C(=O)N[C@H]1CCCCC/C=C\[C@@H]2C[C@@]2(C(=O)NS(=O)(=O)C2CC2)NC(=O)[C@@H]2C[C@@H](Oc3cc(-c4nc(C5CC5)cs4)nc4c(C)c(OC)ccc34)CN2C1=O [Example 26, (2R,6S,13aS,14aR,16aS,Z)-N-(cyclopropylsulfonyl)-2-(2-(4-cyclopropylthiazol-2-yl)-7-methoxy-8-methylquinolin-4-yloxy)-6-(3,3-diethylureido)-5,16-dioxo-1,2,3,5,6,7,8,9,10,11,13a,14,14a,15,16,16a-hexadecahydrocyclopropa[e]pyrrolo[1,2-a][1,4]diazacyclopentadecine-14a-carboxamide]
- IC50 [1]: < 0.01 µM
- IC50 [2]: < 0.01 µM

SMILES: COc1ccc2c(O[C@@H]3C[C@H]4C(=O)N[C@]5(C(=O)NS(=O)(=O)C6CC6)C[C@H]5/C=C\CCCCC[C@H](NC(=O)N5C[C@@H](C)O[C@@H](C)C5)C(=O)N4C3)cc(-c3nc(C(C)C)cs3)nc2c1C [Example 11, (2R,6S,13aS,14aR,16aS)-N-(cyclopropylsulfonyl)-6-({[(2R,6S)-2,6-dimethyl-4-morpholinyl]carbonyl}amino)-2-{[8-methyl-2-[4-(1-methylethyl)-1,3-thiazol-2-yl]-7-(methyloxy)-4-quinolinyl]oxy}-5,16-dioxo-1,2,3,6,7,8,9,10,11,13a,14,15,16,16a-tetradecahydrocyclopropa[e]pyrrolo[1,2-a][1,4]diazacyclopentadecine-14a(5H)-carboxamide]
- IC50 [1]: < 0.01 µM
- IC50 [2]: < 0.01 µM

SMILES: COc1ccc2c(O[C@@H]3C[C@H]4C(=O)N[C@]5(C(=O)NS(=O)(=O)C6CC6)C[C@H]5/C=C\CCCCC[C@H](NC(=O)N5CCC(CO)CC5)C(=O)N4C3)cc(-c3nc(C(C)C)cs3)nc2c1C [Example 25, (2R,6S,13aS,14aR,16aS)-N-(cyclopropylsulfonyl)-6-({[4-(hydroxymethyl)-1-piperidinyl]carbonyl}amino)-2-{[8-methyl-2-[4-(1-methylethyl)-1,3-thiazol-2-yl]-7-(methyloxy)-4-quinolinyl]oxy}-5,16-dioxo-1,2,3,6,7,8,9,10,11,13a,14,15,16,16a-tetradecahydrocyclopropa[e]pyrrolo[1,2-a][1,4]diazacyclopentadecine-14a(5H)-carboxamide]
- IC50 [1]: < 0.01 µM
- IC50 [2]: < 0.01 µM

SMILES: COc1ccc2c(O[C@@H]3C[C@H]4C(=O)N[C@]5(C(=O)NS(=O)(=O)C6CC6)C[C@H]5/C=C\CCCCC[C@H](NC(=O)N5CCC5)C(=O)N4C3)cc(-c3nc(C(C)C)cs3)nc2c1C [Example 18, (2R,6S,13aS,14aR,16aS)-6-[(1-azetidinylcarbonyl)amino]-N-(cyclopropylsulfonyl)-2-{[8-methyl-2-[4-(1-methylethyl)-1,3-thiazol-2-yl]-7-(methyloxy)-4-quinolinyl]oxy}-5,16-dioxo-1,2,3,6,7,8,9,10,11,13a,14,15,16,16a-tetradecahydrocyclopropa[e]pyrrolo[1,2-a][1,4]diazacyclopentadecine-14a(5H)-carboxamide]
- IC50 [1]: < 0.01 µM
- IC50 [2]: < 0.01 µM
